We go through nine compounds from patent US20180135022A1, “METHOD FOR PRODUCING ARTIFICIAL SYNCYTIOTROPHOBLAST AND PROGENITOR CELL THEREOF” (Sumitomo Chemical Company, Limited, priority 2015, published 2018).

Data set [1] has as its system cell layer of cells differentiated from 201B7 cells. To be noted: human, 120 min.
Experimental: (§1) The culture medium in the insert and in the multiple well plate was replaced by Hanks' Balanced Salt Solution (HBSS) (no phenol red, Life Technologies), and incubated for 30 minutes to 45 minutes at 37° C. […] The culture medium in the insert (apical side) is replaced by HBSS containing a test substance, and cultured at 37° C. under stirring at 300 rpm.
(§2) After 120 minutes from addition of the test substance, 100 μl of HBSS containing the test substance was collected from inside the multiple well plate, and the same amount of HBSS was added to the collected HBSS. By quantifying the test substance in the culture medium in the multiple well plate by LC-MS, the permeability of the test substance in the cell layer was evaluated. A value obtained by dividing the permeation amount of each test substance by the permeation amount of antipyrine is shown as an in vitro relative permeation amount in Table 5.
The subject of data set [2] is cell layer of cells differentiated from KhES-1 cells. Particulars: human, 120 min.
Experimental: (§3) After two days from the seeding to the cell culture insert, the electric resistance (Ω) of the cell layer formed on the cell culture insert was measured by using a Millicell ERS-2 (Millipore), and from the obtained measurement value, the electric resistance of the blank in which cells are not seeded was subtracted, and the resultant value was multiplied with the area of the membrane filter (cm^2) to determine a transepithelial electric resistance (TEER, Ω·cm^2).
(§4) The culture medium in the insert and in the multiple well plate was replaced by Hanks' Balanced Salt Solution (HBSS) (no phenol red, Life Technologies), and incubated for 30 minutes to 45 minutes at 37° C. 5% CO2. The culture medium in the insert (apical side) is replaced by HBSS containing a test substance, and cultured at 37° C. under stirring at 300 rpm.
(§5) After 120 minutes from addition of the test substance, 100 μl of HBSS containing the permeated test substance was collected from inside the multiple well plate, and the same amount of HBSS was added to the collected HBSS. By quantifying the test substance in the culture medium in the multiple well plate by LC-MS, the permeability of the test substance in the cell layer was evaluated. A value obtained by dividing the permeation amount of each test substance by the permeation amount of antipyrine is shown as an in vitro relative permeation amount in Table 4.
Data set [3] relates to term placenta. Particulars: cited from earlier work.
Data set [4] has as its system KhES-1 cells. The data set is described as follows: Syncytin gene mRNA by real-time PCR after differentiation culturing, Example 3. The format is cell-based, human. To be noted: single agent added to Basal differentiation medium B (0.1 μM S26948, 10 μM GW 1929, 0.1 μM CGP 7930, 10 nM SR 11237 or 1 nM retinoic acid), day 5; in comparison with Control. The method, then: According to the method described in (1) in Example 2, KhES-1 cells were maintenance cultured, and then subjected to the MEF removing operation. […] S26948, GW 1929, CGP 7930 and SR 11237 were dissolved in DMSO so that they were respectively 100 mM, and retinoic acid was dissolved in DMSO so that it was 10 mM, and each DMSO solution was added to Basal differentiation medium B.
On day 5 of the culturing of the culture using the differentiation medium, total RNA was extracted from cells by using RNeasy Micro Kit (QIAGEN). The obtained total RNA was reverse transcribed by using SuperScript III (Invitrogen), and by real-time PCR using the obtained DNA as a template, TaqMan probe (Applied biosystems) and TaqMan Fast advanced master mix (Applied biosystems), the expression amount of Syncytin gene which is a marker gene of syncytiotrophoblast was examined. For the cells obtained in each culturing, the mRNA amount of Syncytin gene and the mRNA amount of GAPDH gene which is a house keeping gene were determined by real-time PCR. The value obtained by dividing the mRNA amount of Syncytin gene by the mRNA amount of GAPDH gene is defined as a correction value of mRNA amount of Syncytin gene, and taking the Syncytin gene mRNA amount correction value in cells cultured in Basal differentiation medium B (Control) as 1, a Syncytin gene mRNA amount correction value in cells cultured in each of other culture media was shown as a relative expression amount. The operation from the cell culturing to measurement of mRNA amount was repeated three times. In FIG. 2, a standard error of relative expression amount is indicated by an error bar. The relative expression amount having a statistically significant difference with respect to the relative expression amount of Control is marked with asterisks (** means a P value of 0.001 or more and less than 0.01, and *** means a P value of less than 0.001). In comparison with the cells cultured in Basal differentiation medium B (Control), the relative expression amount of Syncytin gene increased in cells that were cultured in a differentiation medium supplemented with either of S26948 (2-1) or GW 1929 (2-2) that is a PPARγ agonist, CGP 7930 (2-3) that is a GABABR positive allosteric modulator, SR 11237 (2-4) that is an RXR agonist or retinoic acid (2-5) that is an RAR agonist.

The subject of data set [5] is GCM1-GFP knock-in human ES cells. The data set is described as follows: Percentage of GFP positive cells (GCM1 gene expression) after differentiation culturing, Example 2. The class given is cell-based. To be noted: day 6. The method, then: S26948, GW 1929, CGP 7930 and SR 11237 were dissolved in DMSO so that they were respectively 1 mM, and retinoic acid was dissolved in DMSO so that it was 10 mM, and each DMSO solution was added to Basal differentiation medium A.
On day 6 of the culturing using the differentiation medium, cells were washed twice with PBS (Invitrogen), and fixed with 4% paraformaldehyde (Wako) for 15 minutes. After subjecting the cells to a membrane permeabilizing treatment for 5 minutes by using PBS supplemented with 0.3% Triton X-100 (Wako), the cells were washed three times with PBS. Then after blocking the cells for 1 hour to 2 hours with 3% Bovine Serum Albumin (BSA, Sigma-Aldrich), the cells were immunostained by using 5 μg/ml chicken anti-GFP antibody (Abcam), 2 μg/ml goat anti-chicken IgG antibody Alexa 488 (Life technologies) and 1 μg/ml Hoechst 33342 (DOJINDO). For the obtained stained sample, the percentage of the GFP positive cells indicating expression of GCM1 gene was quantified by using a fully automatic image analyzer Arrayscan (Thermo Scientific).

The subject of data set [6] is cell layer of cells differentiated from KhES-1 cells. Description: Cell layer permeability test on cell culture insert, cells differentiated from human ES cells, Example 13. Particulars: permeation amount after 120 minutes divided by that of antipyrine; apical side dosing, HBSS, LC-MS; cells from KhES-1.
Experimental: as §3, §4, §5
Data set [7] concerns cell layer of cells differentiated from 201B7 cells. The data set is described as follows: Cell layer permeability test on cell culture insert, cells differentiated from human iPS cells, Example 15. To be noted: permeation amount after 120 minutes divided by that of antipyrine; apical side dosing, HBSS, LC-MS; cells from iPS line 201B7.
Experimental: as §1, §2
The subject of data set [8] is GCM1-GFP knock-in human ES cells. Description: Percentage of GFP positive cells at different retinoic acid concentrations, Example 9. The format is cell-based. Particulars: day 5.
Setting [9] is: 1 μM added to Basal differentiation medium A (3 ng/ml BMP4), in comparison with Control A (0.1% DMSO).
Where [10] appears, read: Table 4, excerpted from Li, H. et al. Arch. Toxicol. 2013.
Setting [11] is: Table 5, excerpted from Li, H. et al. Arch. Toxicol. 2013.

Where two headings read alike, the source gives them in different places. A value given as a limit tells only on which side of the number the result lay.

As to `Cc1cc(=O)n(-c2ccccc2)n1C` [Antipyrine], the “In vitro relative permeation amount” value in data set [1] and in data set [2] was 1 in each case. Moreover, in data set [3], the “Ex vivo relative permeation amount (literature value)” value (from here on “Ex vivo relative permeation amount”) is recorded as 1.

Consider `CC(C)(CO)Cc1cc(C(C)(C)C)c(O)c(C(C)(C)C)c1` [CGP 7930], for which the “relative expression amount of Syncytin gene” value (“relative expression amount” for short) in data set [4] is “increased”. In addition, the “increase in the percentage of the GFP positive cells” value in data set [5] (setting [9]) was “about 20%”.

Consider `Cn1c(=O)c2c(ncn2C)n(C)c1=O` [Caffeine], for which the figures for the “In vitro relative permeation amount” value in data set [1] and in data set [2] were 1.1 and 1.4, respectively. The “Ex vivo relative permeation amount” value in data set [3] (setting [10]) and in data set [3] (setting [11]) was 1.5 each time.

In the case of `C[C@H]1O[C@@H](O[C@H]2[C@@H](O)C[C@H](O[C@H]3[C@@H](O)C[C@H](O[C@H]4CC[C@@]5(C)[C@H](CC[C@@H]6[C@@H]5C[C@@H](O)[C@]5(C)[C@@H](C7=CC(=O)OC7)CC[C@]65O)C4)O[C@@H]3C)O[C@@H]2C)C[C@H](O)[C@@H]1O` [Digoxin], the “In vitro relative permeation amount” value in data set [2] is given as 0.24. Further, the “Ex vivo relative permeation amount” value in data set [3] (setting [10]) is 0.13.

Regarding `CN(CCOc1ccc(C[C@H](Nc2ccccc2C(=O)c2ccccc2)C(=O)O)cc1)c1ccccn1` [GW 1929], the “relative expression amount” value in data set [4] is on record as “increased”. Also, the “increase in the percentage of the GFP positive cells” value in data set [5] (setting [9]) is “about 20%”.

Consider `COc1ccc2c(c1)c(CC(=O)O)c(C)n2C(=O)c1ccc(Cl)cc1` [Indomethacin], for which the “In vitro relative permeation amount” value is reported as 0.72 in data set [6] and 0.62 in data set [7]. Also, the “Ex vivo relative permeation amount” value in data set [3] (setting [10]) and in data set [3] (setting [11]) was 0.66 in each case.

For the compound `COC(=O)C(Cc1ccc(OCCn2c(=O)sc3cc(C(=O)c4ccccc4)ccc32)cc1)C(=O)OC` [S26948], the “relative expression amount” value in data set [4] is “increased”. Besides, the “increase in the percentage of the GFP positive cells” value in data set [5] (setting [9]) is listed as “about 20%”.

For `CC1(C)CCC(C)(C)c2cc(C3(c4ccc(C(=O)O)cc4)OCCO3)ccc21` [SR 11237], in data set [4], the “relative expression amount” value is reported as “increased”. Moreover, the “increase in the percentage of the GFP positive cells” value in data set [5] (setting [9]) is given as “about 20%”.

With `CC1=C(/C=C/C(C)=C/C=C/C(C)=C/C(=O)O)C(C)(C)CCC1` [retinoic acid], the “increase in the percentage of GFP positive cells” value in data set [8] (1 nM or 10 nM retinoic acid in Basal differentiation medium B, compared with Control without retinoic acid) is listed as “about 10%”. In addition, the “decrease in the percentage of GFP positive cells” value in data set [8] (100 nM or more retinoic acid in Basal differentiation medium B, compared with Control) is at least 10%. Moreover, the “increase in the percentage of the GFP positive cells” value in data set [5] (1 nM retinoic acid (Table 1 prints 1 μM) in Basal differentiation medium A, compared with Control B (no retinoic acid)) is given as “about 6%”.
